# In ChEMBL document CHEMBL2401690, “Discovery of RG7388, a potent and selective p53-MDM2 inhibitor in clinical development” (J Med Chem, 2013):
# pIC50: −log10 of the molar value.
# What was measured:
# SJSA-1 [1] = assay: animal or person; conditions: Mus musculus, SJSA-1, po, 336 h, read-out: TGI
# Description: Antitumor activity against human SJSA1 cells xenografted in nude mouse assessed as tumor growth inhibition at 50 mg/kg, po after 2 weeks relative to control
# [2] = AUC in nude mouse xenografted with human SJSA1 cells at 100 mg/kg, po; type: ADME, organism-based, SJSA-1; parameters: dose 100 mg/kg, route oral; conditions: in vivo
# [3] = Clearance in nude mouse at 5 mg/kg, iv; type: ADME, organism-based; parameters: dose 5 mg/kg, route intravenous; conditions: in vivo
# SJSA-1 [4] = assay: Antitumor activity against human SJSA1 cells xenografted in nude mouse assessed as tumor growth inhibition at 100 mg/kg, po after 2 weeks relative to control; type: functional; conditions: SJSA-1, 336 h, read-out: TGI
# [5] = AUC in nude mouse xenografted with human SJSA1 cells at 50 mg/kg, po; type: ADME, organism-based, SJSA-1; parameters: dose 50 mg/kg, route oral; conditions: in vivo
# [6] = Half life in nude mouse at 5 mg/kg, iv; type: ADME, organism-based; parameters: dose 5 mg/kg, route intravenous; conditions: in vivo
# [7] = Clearance in human liver microsomes at […] by LC-MS/MS analysis; type: ADME, Microsome
# [8] = Apparent terminal half-life in C57 mouse at 5 mg/kg, iv; type: ADME, organism-based; parameters: dose 5 mg/kg, route intravenous; conditions: in vivo, read-out: betat1/2(app) (converted)
# HCT-116 = assay: cells; conditions: Homo sapiens
# Description: Cytotoxicity against human HCT116 cells expressing wild type p53 assessed as growth inhibition by MTT assay
# RKO = assay: cells; conditions: Homo sapiens
# Description: Cytotoxicity against human RKO cells expressing wild type p53 assessed as growth inhibition by MTT assay
# MDA-MB-435 = assay: cells; conditions: Homo sapiens
# Description: Cytotoxicity against human MDA-MB-435 cells expressing p53 mutant assessed as growth inhibition by MTT assay
# [9] = Total plasma clearance in C57 mouse at 5 mg/kg, iv; type: ADME, organism-based; parameters: dose 5 mg/kg, route intravenous
# [10] = Oral bioavailability in C57 mouse at 20 mg/kg; type: ADME, organism-based; conditions: in vivo
# [11] = Cmax in C57 mouse at 20 mg/kg, po; type: ADME, organism-based; parameters: dose 20 mg/kg, route oral; conditions: in vivo
# SJSA-1 [12] = assay: cells; conditions: Homo sapiens
# Description: Cytotoxicity against human SJSA1 cells expressing wild type p53 assessed as growth inhibition by MTT assay
# SW480 = assay: cells; conditions: Homo sapiens
# Description: Cytotoxicity against human SW480 cells expressing p53 mutant assessed as growth inhibition by MTT assay
# [13] = Oral bioavailability in C57 mouse at 50 mg/kg; type: ADME, organism-based; conditions: in vivo
# [14] = Cmax in C57 mouse at 50 mg/kg, po; type: ADME, organism-based; parameters: dose 50 mg/kg, route oral; conditions: in vivo
# [15] = Cmax in nude mouse at 50 mg/kg, po; type: ADME, organism-based; parameters: dose 50 mg/kg, route oral; conditions: in vivo
# [16] = Oral bioavailability in nude mouse at 50 mg/kg; type: ADME, organism-based; conditions: in vivo
# SJSA-1 [17] = assay: Antitumor activity against human SJSA1 cells xenografted in nude mouse assessed as tumor growth inhibition at 25 mg/kg, po after 2 weeks relative to control; type: functional; conditions: SJSA-1, 336 h, read-out: TGI
# [18] = AUC in nude mouse xenografted with human SJSA1 cells at 25 mg/kg, po; type: ADME, organism-based, SJSA-1; parameters: dose 25 mg/kg, route oral; conditions: in vivo
# [19] = biological target: E3 ubiquitin-protein ligase Mdm2 (Homo sapiens) (UniProt Q00987); assay: Inhibition of MDM2 in human SJSA1 cells assessed as induction of p53 stabilization after 20 hrs by Western blot analysis; type: cell-based; conditions: SJSA-1
# E3 ubiquitin-protein ligase Mdm2 (Homo sapiens), sequence (Q00987 whole entry, looked up): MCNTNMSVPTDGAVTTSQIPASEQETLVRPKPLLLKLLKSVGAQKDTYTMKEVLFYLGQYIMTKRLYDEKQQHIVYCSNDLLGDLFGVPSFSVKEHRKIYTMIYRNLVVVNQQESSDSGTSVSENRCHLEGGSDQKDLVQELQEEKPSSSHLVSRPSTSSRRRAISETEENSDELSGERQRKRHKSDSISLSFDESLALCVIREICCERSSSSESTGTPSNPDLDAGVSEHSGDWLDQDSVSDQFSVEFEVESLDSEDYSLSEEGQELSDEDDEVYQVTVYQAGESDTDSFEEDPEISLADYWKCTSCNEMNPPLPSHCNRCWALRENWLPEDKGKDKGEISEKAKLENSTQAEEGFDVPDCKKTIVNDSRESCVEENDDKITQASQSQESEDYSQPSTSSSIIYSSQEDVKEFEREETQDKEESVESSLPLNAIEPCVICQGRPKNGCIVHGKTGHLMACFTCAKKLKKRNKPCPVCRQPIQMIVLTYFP
# SJSA-1 [20] = assay: Antitumor activity against human SJSA1 cells xenografted in nude mouse assessed as tumor growth inhibition at 12.5 mg/kg, po after 2 weeks relative to control; type: functional; conditions: SJSA-1, 336 h, read-out: TGI
# SJSA-1 [21] = assay: Induction of apoptosis in human SJSA1 cells after 48 hrs by annexin V staining assay; type: functional, cell-based
# [22] = AUC in nude mouse xenografted with human SJSA1 cells at 12.5 mg/kg, po; type: ADME, organism-based, SJSA-1; parameters: dose 12.5 mg/kg, route oral; conditions: in vivo
# SJSA-1 [23] = assay: Cell cycle arrest in human SJSA1 cells assessed as accumulation at G2/M phase after 24 hrs; type: functional, cell-based
# SJSA-1 [24] = assay: Cell cycle arrest in human SJSA1 cells assessed as accumulation at G1 phase after 24 hrs; type: functional, cell-based
# [25] = Oral bioavailability in C57 mouse at 25 mg/kg; type: ADME, organism-based; conditions: in vivo
# [26] = Cmax in C57 mouse at 25 mg/kg, po; type: ADME, organism-based; parameters: dose 25 mg/kg, route oral; conditions: in vivo
# [27] = Apparent terminal half-life in C57 mouse at 3.6 mg/kg, iv; type: ADME, organism-based; parameters: dose 3.6 mg/kg, route intravenous; conditions: in vivo, read-out: betat1/2(app) (converted)
# [28] = Total plasma clearance in C57 mouse at 3.6 mg/kg, iv; type: ADME, organism-based; parameters: dose 3.6 mg/kg, route intravenous
Structure (SMILES),CLhep predicted [7] [mL/min/kg],half-life [8] [h],pIC50 (HCT-116),pIC50 (RKO),pIC50 (MDA-MB-435),clearance [9] [mL/min/kg],pIC50 (SJSA-1 [12]),pIC50 (SW480),bioavailability [13] [%],Cmax [14] [ng/mL],also measured
CCOc1cc(C(C)(C)C)ccc1C1=N[C@@](C)(c2ccc(Cl)cc2)[C@@](C)(c2ccc(Cl)cc2)N1C(=O)N1CCN(CCCS(C)(=O)=O)CC1 [RO-5045337],5.8,,,,,,,,,,inhibition in vivo at 50 mg/kg (SJSA-1 [1]): 74%; AUC [2]: 380 µg·h/mL; clearance [3]: 8.6 mL/min/kg; inhibition in vivo at 100 mg/kg (SJSA-1 [4]): > 100%; AUC [5]: 200 µg·h/mL; half-life [6]: 2.7 h
CC(C)(C)C[C@@H]1N[C@@H](C(=O)NCC[C@H](O)CO)[C@H](c2cccc(Cl)c2)[C@@]1(C#N)c1ccc(Cl)cc1,18.7,0.44,5.47,5.52,4.84,52.9,5.68,4.52,,,bioavailability [10]: 6.2%; Cmax [11]: 500 ng/mL
CC(C)(C)C[C@@H]1N[C@@H](C(=O)Nc2ccc3cc(C(=O)O)ccc3c2)[C@H](c2cccc(Cl)c2F)[C@@]1(C#N)c1ccc(Cl)cc1F,9.4,1.41,6.85,6.55,5.04,24.5,7.40,4.91,27,1700,
CC(C)(C)C[C@@H]1N[C@@H](C(=O)NCC[C@H](O)CO)[C@H](c2cccc(Cl)c2F)[C@@]1(C#N)c1ccc(Cl)cc1F,19.9,0.52,,,,51.7,5.68,4.77,,,bioavailability [10]: 3.6%; Cmax [11]: 300 ng/mL
CC(C)(C)C[C@@H]1N[C@@H](C(=O)Nc2ccc(C(=O)O)cc2)[C@H](c2cccc(Cl)c2F)[C@@]1(C#N)c1ccc(Cl)cc1F,4.9,,7.05,6.68,4.95,,7.40,4.86,,,clearance [3]: 13.8 mL/min/kg; Cmax [15]: 12000 ng/mL; bioavailability [16]: 83%; half-life [6]: 4.34 h
CC(C)(C)C[C@@H]1N[C@@H](C(=O)Nc2ccc(C(=O)O)cn2)[C@H](c2cccc(Cl)c2F)[C@@]1(C#N)c1ccc(Cl)cc1F,8.9,1.03,7.05,6.40,4.95,29.7,7.30,4.86,53,3000,
CC(C)(C)C[C@@H]1N[C@@H](C(=O)Nc2ccc(C(=O)O)cc2F)[C@H](c2cccc(Cl)c2F)[C@@]1(C#N)c1ccc(Cl)cc1F,7,3.1,6.70,6.30,4.93,11.5,7.05,4.87,100,18000,
CC(C)(C)C[C@@H]1N[C@@H](C(=O)Nc2ccn(CC(C)(C)O)n2)[C@H](c2cccc(Cl)c2F)[C@@]1(C#N)c1ccc(Cl)cc1F,4.2,,5.85,5.85,5.07,,5.88,5.20,,,bioavailability [25]: < 1%; Cmax [26]: 10 ng/mL; half-life [27]: 1.48 h; clearance [28]: 19.8 mL/min/kg

# Now from value to molecule, other results behind:
CLhep predicted [7] [mL/min/kg],half-life [8] [h],pIC50 (HCT-116),pIC50 (RKO),pIC50 (MDA-MB-435),clearance [9] [mL/min/kg],pIC50 (SJSA-1 [12]),pIC50 (SW480),bioavailability [13] [%],Cmax [14] [ng/mL],Structure (SMILES),also measured
6.6,4.8,7.40,6.85,5.21,21.8,7.52,4.74,56,4100,COc1cc(NC(=O)[C@@H]2N[C@@H](CC(C)(C)C)[C@](C#N)(c3ccc(Cl)cc3F)[C@H]2c2cccc(Cl)c2F)ccc1C(=O)O,
12.2,4.4,6.85,6.36,4.95,18.4,7.30,4.80,49,3800,CC(C)(C)C[C@@H]1N[C@@H](C(=O)Nc2ccc(C(=O)O)c(F)c2)[C@H](c2cccc(Cl)c2F)[C@@]1(C#N)c1ccc(Cl)cc1F,
4.3,1.6,8.00,7.15,5.04,10.3,8.00,4.88,80,9900,COc1cc(C(=O)O)ccc1NC(=O)[C@@H]1N[C@@H](CC(C)(C)C)[C@](C#N)(c2ccc(Cl)cc2F)[C@H]1c1cccc(Cl)c1F [IDASANUTLIN],inhibition in vivo at 25 mg/kg (SJSA-1 [17]): > 100%; AUC [18]: 29 µg·h/mL; inhibition [19]: Dose-dependent effect; inhibition in vivo at 12.5 mg/kg (SJSA-1 [20]): 88%; Activity (SJSA-1 [21]): Dose-dependent effect; AUC [22]: 23 µg·h/mL; Activity (SJSA-1 [23]): Dose-dependent effect; Activity (SJSA-1 [24]): Dose-dependent effect
,,6.39,5.81,5.01,,6.80,4.81,,,CC(C)(C)C[C@@H]1N[C@@H](C(=O)Nc2cccc(C(=O)O)c2)[C@H](c2cccc(Cl)c2F)[C@@]1(C#N)c1ccc(Cl)cc1F,
